Assay results as given in patent publication US20250066323A1, “INHIBITORS OF HUMAN RESPIRATORY SYNCYTIAL VIRUS AND METAPNEUMOVIRUS” (priority 2023, published 2025).

Each compound was assayed on RSV-A2-GFP (assay: RSV-A2-GFP viral replication assay). Details: human respiratory syncytial virus, Calu-1, 96 h, read-out: RSV EC50, Calu-1 cells, RSV-A2-GFP MOI=1.2, 96 hrs, GFP-expressing cells counted.
Type: cell-based, Human Respiratory Syncytial Virus
Text: GFP sequence was derived from pJTI™ R4 Dest CMV N-EmGFP pA Vector (Invitrogen) and was cloned into the intergenic sequence between wild-type RSV-A2 P and M genes using standard recombineering techniques. Recombinant RSV-A2-GFP was propagated in Hep2 cells (human cells contains HeLa marker chromosomes and were derived via HeLa contamination, ATCC CCL-23) with infection Multiplicity of Infection (MOI) of 0.1. Virus was harvested 3 days after infection by collecting all culture material and freeze-thaw the viral culture in liquid nitrogen for at least 5 times. To generating virus working stocks, thaw frozen samples in 37° C. water bath then centrifuge at 218 g for 15 min at 4° C. Add 1/10 of 10×SPG (Biological Industries 06-3061-01-5A), mix, aliquot supernatant, and quick-freeze in liquid nitrogen then transfer to −80° C. freezer for storage. Virus titer was determined by automated plaque assay in HEp-2 cells following methods described previously (Wen Z. et al.; J Virol Methods. 2019 January; 263:88-95).
Calu-1 cells (human lung epidermoid carcinoma, ATCC HTB-54) assay ready freezedown (ARF generation described separately) were used in assays. Compound plates were prepared by dispensing compounds dissolved in DMSO into wells of 384 well coming 3985 polystyrene flat clear bottom optical imaging microplates (202.5 nL/well) using an ECHO acoustic dispenser. Each compound was tested in a 10-point serial 3-fold dilution (typical final concentrations: 403 nM-0.02 nM and 40.3 nM-0.002 nM). […] To set up the assay, thaw ARF vial(s) in 37° C. water bath until small ice crystal remain and resuspend into assay media (DMEM containing 2% FBS, 100 U/ml Penicillin-Streptomycin). Count cells using default parameters on ViCell and dilute to 20,000 cells per ml in assay media. Add RSV GFP to cells at 24,000 pfu/ml (MOI=1.2). Mix by gentle inversion. 10 μl/well of 100% DMSO was dispensed to CellTiter-Glo (CTG) assay Max_E controls wells. Dispense cells at 50 μl/well using Bravo and 50 μl filtered tips into compound plates. Cover plates with MicroClime lids loaded with 7.5 ml of assay media to minimize evaporation. Incubate at 37 degrees C. and 5% CO2 for 96 hrs. Following incubation, distinct, GFP-expressing cells are counted using an Acumen imaging system with appropriate settings. A same-well CTG assay is performed by adding 10 μl/well reconstituted CellTiter-Glo reagent (Promega G7573) and reading plates on PerkinElmer Envision according to manufacturer's instructions. Raw data were loaded and analyzed in ActivityBase. Antiviral IC50 and cytotoxicity CC50 values were determined using a 4 parameter logistic fit based on the Levenberg-Marquardt algorithm. Model: 205-4 Parameter Logistic.
Calu-1 cells were purchased from ATCC (Cat #HTB-54) and are expanded in growth media (DMEM containing 10% FBS, 100 U/ml Penicillin-Streptomycin). To make ARF, remove and discard cell culture media, briefly rinse the cell layer with PBS to remove all traces of serum. Add 2.5 ml of TrypLE Express solution and incubate until cells dislodge, then add growth media and resuspend the cells by gentle pipetting. Count cells for concentration and determine viability using a ViCell. Centrifuge at RT, 300 g for 5 min to pellet cells. Gently aspirate supernatant, flick pellet to loosen cells. Resuspend cells in an appropriate volume of freezing medium (DMEM containing 10% DMSO, 10% FBS, 100 U/ml Penicillin-Streptomycin) to achieve 5×10^6/ml. Transfer 1 ml of cell suspension to freezing vials. Put vials to CoolCell cryopreservation container and place CoolCell container upright in a −80° C. freezer overnight before transferring vials to liquid nitrogen vapor for storage.
`Cn1nc(-n2cccn2)cc1C(=O)NCC(O)(c1cc(C(C)(C)N)cc(-c2ccc(C(F)(F)F)cc2)n1)C(F)(F)F` (single isomer, unassigned) [Example 42-A, N-(2-(4-(2-aminopropan-2-yl)-6-(4-(trifluoromethyl)phenyl)pyridin-2-yl)-3,3,3-trifluoro-2-hydroxypropyl)-1′-methyl-1′H-[1,3′-bipyrazole]-5′-carboxamide] was tested, and the EC50 was < 10 nM.
`Cn1nc(-n2cccn2)cc1C(=O)NCC(C)(O)c1cc(C(C)(C)N)cc(-c2ccc(Cl)c(F)c2)n1` (single isomer, unassigned) [Example 39-B, N-(2-(4-(2-aminopropan-2-yl)-6-(4-chloro-3-fluorophenyl)pyridin-2-yl)-2-hydroxypropyl)-1′-methyl-1′H-[1,3′-bipyrazole]-5′-carboxamide] was tested, and the EC50 was < 10 nM.
With `Cn1nc(-n2cccn2)cc1C(=O)NCC(O)(c1cc(C(C)(C)N)cc(-c2ccc(F)c(F)c2)n1)C(F)(F)F` (single isomer, unassigned) [Example 43-A, N-(2-(4-(2-aminopropan-2-yl)-6-(3,4-difluorophenyl)pyridin-2-yl)-3,3,3-trifluoro-2-hydroxypropyl)-1′-methyl-1′H-[1,3′-bipyrazole]-5′-carboxamide] the EC50 was < 10 nM.
`Cn1nc(-c2cscn2)cc1C(=O)NCC(O)(c1cc2c(c(-c3ccc(F)cc3)n1)OCC2(C)C(N)=O)C(F)(F)F` (single isomer, unassigned) [Example 30-B, 7-(4-fluorophenyl)-3-methyl-5-(1,1,1-trifluoro-2-hydroxy-3-(1-methyl-3-(thiazol-4-yl)-1H-pyrazole-5-carboxamido)propan-2-yl)-2,3-dihydrofuro[2,3-c]pyridine-3-carboxamide] was tested, and the EC50 was < 10 nM.
For `Cn1nc(-n2cccn2)cc1C(=O)NCC(O)(c1cc(C(C)(C)N)cc(-c2ccc(F)cc2)n1)C1CC1` (single isomer, unassigned) [Example 35-B, N-(2-(4-(2-aminopropan-2-yl)-6-(4-fluorophenyl)pyridin-2-yl)-2-cyclopropyl-2-hydroxyethyl)-1′-methyl-1′H-[1,3′-bipyrazole]-5′-carboxamide], the EC50 was < 10 nM.
For `Cn1nc(-n2cccn2)cc1C(=O)NCC(O)(c1cc(C(C)(C)N)cc(-c2ccc(C(F)F)cc2)n1)C(F)(F)F` (single isomer, unassigned) [Example 41-A, N-(2-(4-(2-aminopropan-2-yl)-6-(4-(difluoromethyl)phenyl)pyridin-2-yl)-3,3,3-trifluoro-2-hydroxypropyl)-1′-methyl-1′H-[1,3′-bipyrazole]-5′-carboxamide], the EC50 was < 10 nM.
In the case of `Cc1cc(F)ccc1-c1cc(C(C)(C)N)cc(C(O)(CNC(=O)c2cc(-n3cccn3)nn2C)C(F)(F)F)n1` (single isomer, unassigned) [Example 45-A, N-(2-(4-(2-aminopropan-2-yl)-6-(4-fluoro-2-methylphenyl)pyridin-2-yl)-3,3,3-trifluoro-2-hydroxypropyl)-1′-methyl-1′H-[1,3′-bipyrazole]-5′-carboxamide], the EC50 is reported as < 10 nM.
In the case of `Cn1nc(-n2cccn2)cc1C(=O)NCC(C)(O)c1cc(C(C)(C)N)cc(-c2ccc(C(F)(F)F)cc2)n1` (single isomer, unassigned) [Example 37-B, N-(2-(4-(2-aminopropan-2-yl)-6-(4-(trifluoromethyl)phenyl)pyridin-2-yl)-2-hydroxypropyl)-1′-methyl-1′H-[1,3′-bipyrazole]-5′-carboxamide], the EC50 is reported as < 10 nM.
For `Cn1nc(-n2cccn2)cc1C(=O)NCC(O)(c1cc(C(C)(C)N)cc(-c2ccc(F)cc2F)n1)C(F)(F)F` (single isomer, unassigned) [Example 44-A, N-(2-(4-(2-aminopropan-2-yl)-6-(2,4-difluorophenyl)pyridin-2-yl)-3,3,3-trifluoro-2-hydroxypropyl)-1′-methyl-1′H-[1,3′-bipyrazole]-5′-carboxamide], the EC50 was < 10 nM.

Same assay, conditions: read-out: RSV EC50; Calu-1 cells, RSV-A2-GFP MOI=1.2, 96 hrs, GFP-expressing cells counted
In the case of `Cn1nc(-c2cscn2)cc1C(=O)NCC(C)(O)c1cc(C(C)(C)C(N)=O)cc(-c2ccc(F)cc2)n1` (single isomer, unassigned) [Example 31-B, N-(2-(4-(1-amino-2-methyl-1-oxopropan-2-yl)-6-(4-fluorophenyl)pyridin-2-yl)-2-hydroxypropyl)-1-methyl-3-(thiazol-4-yl)-1H-pyrazole-5-carboxamide], the EC50 is reported as < 10 nM.
With `Cn1nc(-n2cccn2)cc1C(=O)NCC(O)c1cc(C(C)(C)N)cc(-c2ccc(F)cc2)n1` (single isomer, unassigned) [Example 34-B, N-(2-(4-(2-aminopropan-2-yl)-6-(4-fluorophenyl)pyridin-2-yl)-2-hydroxyethyl)-1′-methyl-1′H-[1,3′-bipyrazole]-5′-carboxamide] the EC50 was > 100 nM.
With `Cn1nc(-c2cscn2)cc1C(=O)NCC(C)(O)c1cc(C(C)(C)O)cc(-c2ccc(F)cc2)n1` (single isomer, unassigned) [Example 32-A, N-(2-(6-(4-fluorophenyl)-4-(2-hydroxypropan-2-yl)pyridin-2-yl)-2-hydroxypropyl)-1-methyl-3-(thiazol-4-yl)-1H-pyrazole-5-carboxamide] the EC50 was > 100 nM.
`Cn1nc(-c2cscn2)cc1C(=O)NCC(C)(O)c1cc(C(C)(C)O)cc(-c2ccc(F)cc2)n1` (single isomer, unassigned) [Example 32-B, N-(2-(6-(4-fluorophenyl)-4-(2-hydroxypropan-2-yl)pyridin-2-yl)-2-hydroxypropyl)-1-methyl-3-(thiazol-4-yl)-1H-pyrazole-5-carboxamide] was tested, and the EC50 was < 10 nM.
For `Cn1nc(-n2cccn2)cc1C(=O)NCC(O)c1cc(C(C)(C)N)cc(-c2ccc(F)cc2)n1` (single isomer, unassigned) [Example 34-A, N-(2-(4-(2-aminopropan-2-yl)-6-(4-fluorophenyl)pyridin-2-yl)-2-hydroxyethyl)-1′-methyl-1′H-[1,3′-bipyrazole]-5′-carboxamide], the EC50 was < 10 nM.
`CC(N)C(C)(C)c1cc(-c2ccc(F)cc2)nc(C(C)(O)CNC(=O)c2cc(-n3cccn3)nn2C)c1` (single isomer, unassigned) [Example 33-B, N-(2-(4-(3-amino-2-methylbutan-2-yl)-6-(4-fluorophenyl)pyridin-2-yl)-2-hydroxypropyl)-1′-methyl-1′H-[1,3′-bipyrazole]-5′-carboxamide] was tested, and the EC50 was > 100 nM.
`Cn1nc(-c2cscn2)cc1C(=O)NCC(C)(O)c1cc(C(C)(C)C(N)=O)cc(-c2ccc(F)cc2)n1` (single isomer, unassigned) [Example 31-A, N-(2-(4-(1-amino-2-methyl-1-oxopropan-2-yl)-6-(4-fluorophenyl)pyridin-2-yl)-2-hydroxypropyl)-1-methyl-3-(thiazol-4-yl)-1H-pyrazole-5-carboxamide] was tested, and the EC50 was > 100 nM.
`Cn1nc(-n2cccn2)cc1C(=O)NCC(C)(O)c1cc2c(c(-c3ccc(F)cc3)n1)OCC2(C)C(N)=O` (single isomer, unassigned) [Example 29-A, 7-(4-fluorophenyl)-5-(2-hydroxy-1-(1′-methyl-1′H-[1,3′-bipyrazole]-5′-carboxamido)propan-2-yl)-3-methyl-2,3-dihydrofuro[2,3-c]pyridine-3-carboxamide] was tested, and the EC50 was 10 to 100 nM.
For `CC(N)C(C)(C)c1cc(-c2ccc(F)cc2)nc(C(C)(O)CNC(=O)c2cc(-n3cccn3)nn2C)c1` (single isomer, unassigned) [Example 33-C, N-(2-(4-(3-amino-2-methylbutan-2-yl)-6-(4-fluorophenyl)pyridin-2-yl)-2-hydroxypropyl)-1′-methyl-1′H-[1,3′-bipyrazole]-5′-carboxamide], the EC50 was < 10 nM.
